# Data from patent US8604061B2, “2-aminooxazolines as TAAR1 ligands” (Hoffmann-La Roche Inc., priority 2007, dated 2013).
# Tested on: TAAR1
# Experiment: TAAR1 radioligand binding, membranes of stably transfected HEK293 cells (mouse)
# Settings: TAAR1 binding assay, species not stated; read-out: calculated Kd value of the radioligand
# Method in brief: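 Competition binding on membranes from HEK293 cells stably expressing the TAAR1 species ortholog, in HEPES-NaOH pH 7.0 with 10 mM MgCl2 and 2 mM CaCl2, 30 min at 4° C with [3H]-rac-2-(1,2,3,4-tetrahydro-1-naphthyl)-2-imidazoline. Competitors 10 pM–30 μM, duplicates; non-specific binding with 10 μM unlabelled ligand; filtration and scintillation counting.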
row,SMILES,Kd [nM]
1,"c1ccc2c(c1)CCCC2C1=NCCN1 (racemic) [[^3H]-rac-2-(1,2,3,4-tetrahydro-1-naphthyl)-2-imidazoline, reference compound]",60

# Target: TAAR1 (Rattus norvegicus, UniProt Q923Y9)
# Experiment: TAAR1 radioligand binding, membranes of stably transfected HEK293 cells (rat)
# Settings: cell marked 'rat'; radioligand [3H]-rac-2-(1,2,3,4-tetrahydro-1-naphthyl)-2-imidazoline, 4° C.; read-out: Ki (μM) mouse/rat
# Method: For the construction of expression plasmids the coding sequences of human, rat and mouse TAAR 1 were amplified from genomic DNA essentially as described by Lindemann et al.. The Expand High Fidelity PCR System (Roche Diagnostics) was used with 1.5 mM Mg^2+ and purified PCR products were cloned into pCR2.1-TOPO cloning vector (Invitrogen) following the instructions of the manufacturer. PCR products were subcloned into the pIRESneo2 vector (BD Clontech, Palo Alto, Calif.), and expression vectors were sequence verified before introduction in cell lines.
# HEK293 cells (ATCC #CRL-1573) were cultured essentially as described Lindemann et al. (2005). For the generation of stably transfected cell lines HEK293 cells were transfected with the pIRESneo2 expression plasmids containing the TAAR coding sequences (described above) with Lipofectamine 2000 (Invitrogen) according to the instructions of the manufacturer, and 24 hrs post transfection the culture medium was supplemented with 1 mg/ml G418 (Sigma, Buchs, Switzerland). After a culture period of about 10 d clones were isolated, expanded and tested for responsiveness to trace amines (all compounds purchased from Sigma) with the cAMP Biotrak Enzyme immunoassay (EIA) System (Amersham) following the non-acetylation EIA procedure provided by the manufacturer.
# Cells at confluence were rinsed with ice-cold phosphate buffered saline without Ca^2+ and Mg^2+ containing 10 mM EDTA and pelleted by centrifugation at 1000 rpm for 5 min at 4° C. The pellet was then washed twice with ice-cold phosphate buffered saline and cell pellet was frozen immediately by immersion in liquid nitrogen and stored until use at −80° C. Cell pellet was then suspended in 20 ml HEPES-NaOH (20 mM), pH 7.4 containing 10 mM EDTA, and homogenized with a Polytron (PT 3000, Kinematica) at 10,000 rpm for 10 s. The homogenate was centrifuged at 48,000×g for 30 min at 4° C. and the pellet resuspended in 20 ml HEPES-NaOH (20 mM), pH 7.4 containing 0.1 mM EDTA (buffer A), and homogenized with a Polytron at 10,000 rpm for 10 s. The homogenate was then centrifuged at 48,000×g for 30 min at 4° C. and the pellet resuspended in 20 ml buffer A, and homogenized with a Polytron at 10,000 rpm for 10 s. Protein concentration was determined by the method of Pierce (Rockford, Ill.). The homogenate was then centrifuged at 48,000×g for 10 min at 4° C., resuspended in HEPES-NaOH (20 mM), pH 7.0 including MgCl2 (10 mM) and […] homogenized with a Polytron at 10,000 rpm for 10 s.
# Binding assay was performed at 4° C. in a final volume of 1 ml, and with an incubation time of 30 min. […] Non-specific binding was defined as the amount of [^3H]-rac-2-(1,2,3,4-tetrahydro-1-naphthyl)-2-imidazoline bound in the presence of the appropriate unlabelled ligand (10 μM). Competing ligands were tested in a wide range of concentrations (10 pM-30 μM). […] Each experiment was performed in duplicate. All incubations were terminated by rapid filtration through UniFilter-96 plates (Packard Instrument Company) and glass filter GF/C, pre-soaked for at least 2 h in polyethylenimine 0.3%, and using a Filtermate 96 Cell Harvester (Packard Instrument Company). The tubes and filters were then washed 3 times with 1 ml aliquots of cold buffer B. Filters were not dried and soaked in Ultima gold (45 μl/well, Packard Instrument Company) and bound radioactivity was counted by a TopCount Microplate Scintillation Counter (Packard Instrument Company).
row,SMILES,Ki [µM]
1,"NC1=N[C@@H](COc2ccc(Br)cc2)CO1 [Example 310, (S)-4-(4-Bromo-phenoxymethyl)-4,5-dihydro-oxazol-2-ylamine]",0.009
2,"Cc1ccc(Cl)cc1[C@H]1COC(N)=N1 [Example 314, (+)-(S)-4-(5-Chloro-2-methyl-phenyl)-4,5-dihydro-oxazol-2-ylamine]",0.003
3,"CC1(c2cccc(Cl)c2F)COC(N)=N1 (racemic) [Example 311, (RS)-4-(3-Chloro-2-fluoro-phenyl)-4-methyl-4,5-dihydro-oxazol-2-ylamine]",0.0042
4,"CC1(c2ccc(F)cc2Cl)COC(N)=N1 (racemic) [Example 318, (RS)-4-(2-Chloro-4-fluoro-phenyl)-4-methyl-4,5-dihydro-oxazol-2-ylamine]",0.002
5,"NC1=N[C@@H](COc2cc(Cl)cc(Cl)c2)CO1 [Example 285, (S)-4-(3,5-Dichloro-phenoxymethyl)-4,5-dihydro-oxazol-2-ylamine]",0.0045
6,"NC1=N[C@H](c2ccc(Br)cc2Cl)CO1 [Example 315, (−)-(R)-4-(4-Bromo-2-chloro-phenyl)-4,5-dihydro-oxazol-2-ylamine]",0.0016
7,"NC1=N[C@@H](c2ccc(Br)cc2Cl)CO1 [Example 316, (+)-(S)-4-(4-Bromo-2-chloro-phenyl)-4,5-dihydro-oxazol-2-ylamine]",0.0003
8,"NC1=N[C@@H](CCc2ccccc2Br)CO1 [Example 322, (S)-4-[2-(2-Bromo-phenyl)-ethyl]-4,5-dihydro-oxazol-2-ylamine]",0.002
9,"NC1=N[C@@H](c2ccc(Br)c(F)c2)CO1 [Example 321, (+)-(S)-4-(4-Bromo-3-fluoro-phenyl)-4,5-dihydro-oxazol-2-ylamine]",0.0014
10,"NC1=N[C@@H](COc2ccc(Cl)c(Cl)c2)CO1 [Example 284, (S)-4-(3,4-Dichloro-phenoxymethyl)-4,5-dihydro-oxazol-2-ylamine]",0.0028
11,"CC[C@]1(c2ccc(Cl)cc2)COC(N)=N1 [Example 313, (S)-4-(4-Chloro-phenyl)-4-ethyl-4,5-dihydro-oxazol-2-ylamine]",0.005
12,"CCC(C[C@H]1COC(N)=N1)c1cccc(Cl)c1 (stereo partly drawn) [Example 287, (S)-4-[2-(3-Chloro-phenyl)-butyl]-4,5-dihydro-oxazol-2-ylamine]",0.0027
13,"Cc1cc([C@@]2(C)COC(N)=N2)ccc1Cl [Example 281, (S)-4-(4-Chloro-3-methyl-phenyl)-4-methyl-4,5-dihydro-oxazol-2-ylamine]",0.0019
